Tests used:
[1] = Inhibition of IL-15 in mouse 32Dbeta cells assessed as decrease in cell growth in presence of RLI incubated for 30 mins followed by RLI addition and measured after 2.5 days by alamar blue assay
[2] = Inhibition of […] in mouse 32Dbeta cells assessed as decrease in cell growth in presence of IL2 incubated for 30 mins followed by IL2 addition and measured after 2.5 days by alamar blue assay

Row | IC50 [1] [µM] | IC50 [2] [µM] | Compound
1 | > 30 | > 30 | Cn1nc(Cc2nnc(SCCCCCCCC(=O)Nc3ccc(Cl)cc3Cl)n2CCCO[Si](C)(C)C(C)(C)C)c2ccccc2c1=O
2 | 2.3 | 3.2 | CN(C)CCCn1nc(Cc2nnc(SCCCCCCCC(=O)Nc3ccc(Cl)cc3Cl)n2C)c2ccccc2c1=O
3 | 18.8 | 16.7 | CN(C)CCCn1nc(Cc2nnc(SCC(=O)Nc3ccc(Cl)cc3Cl)n2C)c2ccccc2c1=O
4 | 6.7 | 20.6 | Cn1c(Cc2nn(C)c(=O)c3ccccc23)nnc1SCCCCCCCC(=O)Nc1ccc(C(=O)c2ccccc2)cc1
5 | 8.9 | 11.7 | Cn1c(Cc2nn(CCC=O)c(=O)c3ccccc23)nnc1SCCCCCCCC(=O)Nc1ccc(Cl)cc1Cl
6 | 30 | 30 | Cn1c(Cc2nn(CCC=O)c(=O)c3ccccc23)nnc1SCC(=O)Nc1ccc(Cl)cc1Cl
7 | 1.1 | 3.5 | Cn1nc(Cc2nnc(SCCCCCCCC(=O)Nc3ccc(Cl)cc3Cl)[nH]2)c2ccccc2c1=O
8 | 2.2 | 3.9 | Cn1c(Cc2nn(C)c(=O)c3ccccc23)nnc1SCCCCCCCC(=O)Nc1ccc(Cl)cc1Cl
9 | > 30 | > 30 | Cn1c(Cc2nn(CCC(=O)O)c(=O)c3ccccc23)nnc1SCC(=O)Nc1ccc(Cl)cc1Cl
10 | > 30 | > 30 | Cn1c(Cc2nn(CCC3OCCO3)c(=O)c3ccccc23)nnc1SCC(=O)Nc1ccc(Cl)cc1Cl
11 | > 30 | > 30 | Cn1c(Cc2nn(CCC(=O)O)c(=O)c3ccccc23)nnc1SCCCCCCCC(=O)Nc1ccc(Cl)cc1Cl
12 | 6 | 6.4 | Cn1nc(Cc2nnc(SCC(=O)Nc3ccc(Cl)cc3Cl)n2CCC=O)c2ccccc2c1=O
13 | 2.5 | 5.5 | Cn1nc(Cc2nnc(SCCCCCCCC(=O)Nc3ccc(Cl)cc3Cl)n2CCC=O)c2ccccc2c1=O
14 | > 30 | > 30 | Cn1nc(Cc2nnc(SCCCCCCCC(=O)Nc3ccc(Cl)cc3Cl)n2CCC(=O)O)c2ccccc2c1=O
15 | > 30 | > 30 | Cn1c(Cc2n[nH]c(=O)c3ccccc23)nnc1SCCCCCCCC(=O)Nc1ccc(Cl)cc1Cl
16 | > 30 | > 30 | CCOC(CCn1c(Cc2nn(C)c(=O)c3ccccc23)nnc1SCC(=O)Nc1ccc(Cl)cc1Cl)OCC
17 | 3.7 | 5.5 | CN(C)CCCn1c(Cc2nn(C)c(=O)c3ccccc23)nnc1SCCCCCCCC(=O)Nc1ccc(Cl)cc1Cl
18 | > 30 | > 30 | Cn1c(Cc2nn(CCCO[Si](C)(C)C(C)(C)C)c(=O)c3ccccc23)nnc1SCCCCCCCC(=O)Nc1ccc(Cl)cc1Cl
19 | > 30 | > 30 | Cn1nc(Cc2nnc(SCC(=O)Nc3ccc(Cl)cc3Cl)n2CCC(=O)O)c2ccccc2c1=O
20 | > 30 | > 30 | Cn1nc(Cc2nnc(SCC(=O)Nc3ccc(Cl)cc3Cl)n2CCCO)c2ccccc2c1=O
21 | 12.1 | 16.4 | CCOC(CCn1c(Cc2nn(C)c(=O)c3ccccc23)nnc1SCCCCCCCC(=O)Nc1ccc(Cl)cc1Cl)OCC
22 | > 30 | > 30 | Cn1nc(Cc2nnc(SCCCCCCCC(=O)Nc3ccc(Cl)cc3Cl)n2CCCO)c2ccccc2c1=O
23 | 22.5 | 21.1 | Cn1c(Cc2nn(C)c(=O)c3ccccc23)nnc1SCC(=O)Nc1ccc(Cl)cc1Cl
24 | > 30 | > 30 | Cn1c(Cc2nn(CCCO)c(=O)c3ccccc23)nnc1SCC(=O)Nc1ccc(Cl)cc1Cl
25 | > 30 | > 30 | Cn1c(Cc2nn(CCCO)c(=O)c3ccccc23)nnc1SCCCCCCCC(=O)Nc1ccc(Cl)cc1Cl
